Assay results from ChEMBL document CHEMBL5726955, “Substituted boronic acids and boronate esters as immunoproteasome inhibitors” (2019).

Molecular target: T1, Proteasome Macropain subunit MB1 (Homo sapiens, UniProt P28074)
T1 sequence (P28074 whole entry): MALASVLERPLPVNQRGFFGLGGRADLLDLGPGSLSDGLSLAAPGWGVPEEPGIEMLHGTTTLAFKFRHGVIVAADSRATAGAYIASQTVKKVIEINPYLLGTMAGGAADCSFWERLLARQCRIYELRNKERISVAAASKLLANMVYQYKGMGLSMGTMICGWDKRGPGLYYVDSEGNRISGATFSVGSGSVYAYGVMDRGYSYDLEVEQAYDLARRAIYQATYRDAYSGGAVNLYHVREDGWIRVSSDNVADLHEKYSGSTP
Assay: Determination of Beta5 Activity: Measurement of Beta5 inhibition is performed in 384 well format based on fluorescence intensity assay.Purified human constitutive proteasome (1.25 nM) and serial diluted compounds in DMSO (range of concentrations from 30 μM to […]) or controls are incubated for 20 minutes at 25° C. in assay buffer containing 50 mM Tris pH 7.4, 0.03% SDS, 1 mM EDTA and 1% DMSO. The reaction is initiated by the addition of the fluorogenic peptide substrate, Suc-LLVY-AMC (Bachem 1-1395), at a concentration of 40 μM. After 60 minutes of incubation at 37° C., fluorescence intensity is measured at λex=350 nm and λem=450 nm with a fluorescence reader (Perkin Elmer Envision reader or equivalent).

| IC50 [nM] | SMILES |
| --- | --- |
| < 50 | Cc1ccc(OCCC(=O)N[C@@H](Cc2coc3ccccc23)B(O)O)cc1 |
| > 5000 | CCO[C@@H](C(=O)N[C@@H](Cc1coc2ccccc12)B(O)O)c1ccccc1 |
